Results: ChEMBL document CHEMBL4507292 (2021)

Experiments:
[1] = tested on: Tyrosine-protein kinase ABL1 (Homo sapiens), P00519 [F317L]; details: Compound concentration 1000.0 nM
[2] = tested on: Epidermal growth factor receptor (Homo sapiens), P00533 [UNDEFINED MUTATION]; details: Compound concentration 1000.0 nM
[3] = target: Serine/threonine-protein kinase 3 (Homo sapiens) (UniProt Q13188); details: Compound concentration 1000.0 nM
[4] = target: Serine/threonine-protein kinase RIO2 (Homo sapiens) (UniProt Q9BVS4); details: Compound concentration 1000.0 nM
[5] = target: Testis-specific serine/threonine-protein kinase 1 (Homo sapiens) (UniProt Q9BXA7); details: Compound concentration 1000.0 nM
[6] = target: Mitogen-activated protein kinase 9 (Homo sapiens) (UniProt P45984); details: Compound concentration 1000.0 nM
[7] = target: Rhodopsin kinase GRK1 (Homo sapiens) (UniProt Q15835); details: Compound concentration 1000.0 nM
[8] = target: Serine/threonine-protein kinase D1 (Homo sapiens) (UniProt Q15139); details: Compound concentration 1000.0 nM
[9] = target: Mitogen-activated protein kinase kinase kinase kinase 1 (Homo sapiens) (UniProt Q92918); details: Compound concentration 1000.0 nM
[10] = target: Bone morphogenetic protein receptor type-1B (Homo sapiens) (UniProt O00238); details: Compound concentration 1000.0 nM
[11] = target: Proto-oncogene tyrosine-protein kinase Src (Homo sapiens) (UniProt P12931); details: Compound concentration 1000.0 nM
[12] = target: Serine/threonine-protein kinase Chk1 (Homo sapiens) (UniProt O14757); details: Compound concentration 1000.0 nM
[13] = target: Sigma non-opioid intracellular receptor 1 (Homo sapiens, UniProt Q99720); details: Compound concentration 10.0 uM
[14] = target: Serine/threonine-protein kinase Nek4 (Homo sapiens) (UniProt P51957); details: Compound concentration 1000.0 nM
[15] = target: Platelet-derived growth factor receptor alpha (Homo sapiens) (UniProt P16234); details: Compound concentration 1000.0 nM
[16] = tested on: Epidermal growth factor receptor (Homo sapiens), P00533 [T790M]; details: Compound concentration 1000.0 nM
[17] = target: Beta-adrenergic receptor kinase 1 (Homo sapiens) (UniProt P25098); details: Compound concentration 1000.0 nM
[18] = target: Eukaryotic translation initiation factor 2-alpha kinase 1 (Homo sapiens) (UniProt Q9BQI3); details: Compound concentration 1000.0 nM
[19] = target: Inhibitor of nuclear factor kappa-B kinase subunit alpha (Homo sapiens) (UniProt O15111); details: Compound concentration 1000.0 nM
[20] = target: Tyrosine-protein kinase receptor UFO (Homo sapiens) (UniProt P30530); details: Compound concentration 1000.0 nM
[21] = target: Serine/threonine-protein kinase 26 (Homo sapiens) (UniProt Q9P289); details: Compound concentration 1000.0 nM
[22] = target: ALK tyrosine kinase receptor (Homo sapiens) (UniProt Q9UM73); details: Compound concentration 1000.0 nM
[23] = target: Serine/threonine-protein kinase pim-3 (Homo sapiens) (UniProt Q86V86); details: Compound concentration 1000.0 nM
[24] = tested on: Tyrosine-protein kinase ABL1 (Homo sapiens), P00519 [F317I]; details: Compound concentration 1000.0 nM
[25] = target: Glycogen synthase kinase-3 alpha (Homo sapiens) (UniProt P49840); details: Compound concentration 1000.0 nM
[26] = target: T1, Alpha-1D adrenergic receptor (Homo sapiens) (UniProt P25100); details: Compound concentration 10.0 uM
T1 sequence (whole entry): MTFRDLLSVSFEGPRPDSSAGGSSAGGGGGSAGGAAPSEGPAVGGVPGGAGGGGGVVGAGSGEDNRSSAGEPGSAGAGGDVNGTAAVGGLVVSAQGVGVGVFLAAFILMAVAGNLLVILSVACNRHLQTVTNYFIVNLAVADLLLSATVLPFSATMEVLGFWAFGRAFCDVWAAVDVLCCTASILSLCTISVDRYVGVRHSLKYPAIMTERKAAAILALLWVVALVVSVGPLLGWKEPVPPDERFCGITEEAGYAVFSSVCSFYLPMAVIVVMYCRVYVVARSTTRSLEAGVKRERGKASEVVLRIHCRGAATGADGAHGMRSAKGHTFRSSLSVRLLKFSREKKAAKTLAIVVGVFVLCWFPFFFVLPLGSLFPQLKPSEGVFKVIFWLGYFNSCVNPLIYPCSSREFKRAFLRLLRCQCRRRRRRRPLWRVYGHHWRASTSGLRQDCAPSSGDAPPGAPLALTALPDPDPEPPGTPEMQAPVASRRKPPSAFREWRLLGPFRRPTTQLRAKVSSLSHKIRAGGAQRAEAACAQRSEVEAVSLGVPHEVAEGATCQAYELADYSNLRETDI

[27] = target: Rhodopsin kinase GRK7 (Homo sapiens) (UniProt Q8WTQ7); details: Compound concentration 1000.0 nM
[28] = target: Calcium/calmodulin-dependent protein kinase type II subunit delta (Homo sapiens) (UniProt Q13557); details: Compound concentration 1000.0 nM
[29] = target: Serine/threonine-protein kinase tousled-like 1 (Homo sapiens) (UniProt Q9UKI8); details: Compound concentration 1000.0 nM
[30] = target: Calcium/calmodulin-dependent protein kinase kinase 2 (Homo sapiens) (UniProt Q96RR4); details: Compound concentration 1000.0 nM
[31] = target: Calcium/calmodulin-dependent protein kinase type II subunit alpha (Homo sapiens) (UniProt Q9UQM7); details: Compound concentration 1000.0 nM
[32] = target: Ribosomal protein S6 kinase alpha-2 (Homo sapiens) (UniProt Q15349); details: Compound concentration 1000.0 nM
[33] = tested on: Mast/stem cell growth factor receptor Kit (Homo sapiens), P10721 [V559D,V654A]; details: Compound concentration 1000.0 nM
[34] = target: Calcium/calmodulin-dependent protein kinase type 1G (Homo sapiens) (UniProt Q96NX5); details: Compound concentration 1000.0 nM
[35] = target: Alpha-1B adrenergic receptor (Homo sapiens) (UniProt P35368); details: Compound concentration 10.0 uM
[36] = target: Insulin-like growth factor 1 receptor (Homo sapiens) (UniProt P08069); details: Compound concentration 1000.0 nM
[37] = target: Dual specificity mitogen-activated protein kinase kinase 5 (Homo sapiens) (UniProt Q13163); details: Compound concentration 1000.0 nM

Chain of Rhodopsin kinase GRK7 (Homo sapiens) (Q8WTQ7 whole entry): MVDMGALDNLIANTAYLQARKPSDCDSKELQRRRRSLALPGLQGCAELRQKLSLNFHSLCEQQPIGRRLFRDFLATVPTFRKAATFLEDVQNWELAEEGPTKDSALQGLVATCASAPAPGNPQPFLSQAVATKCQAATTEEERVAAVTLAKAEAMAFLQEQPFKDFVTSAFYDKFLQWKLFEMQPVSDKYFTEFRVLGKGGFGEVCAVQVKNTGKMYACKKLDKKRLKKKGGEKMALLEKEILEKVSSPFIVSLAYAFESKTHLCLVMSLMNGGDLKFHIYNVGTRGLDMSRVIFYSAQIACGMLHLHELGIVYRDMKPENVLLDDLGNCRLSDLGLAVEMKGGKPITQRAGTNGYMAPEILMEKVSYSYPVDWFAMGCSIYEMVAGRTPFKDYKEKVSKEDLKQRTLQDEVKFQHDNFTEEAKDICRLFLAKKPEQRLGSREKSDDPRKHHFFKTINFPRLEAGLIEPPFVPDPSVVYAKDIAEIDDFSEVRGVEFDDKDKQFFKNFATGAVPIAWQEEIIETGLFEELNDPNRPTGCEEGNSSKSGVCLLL
Chain of Tyrosine-protein kinase receptor UFO (Homo sapiens) (P30530 whole entry): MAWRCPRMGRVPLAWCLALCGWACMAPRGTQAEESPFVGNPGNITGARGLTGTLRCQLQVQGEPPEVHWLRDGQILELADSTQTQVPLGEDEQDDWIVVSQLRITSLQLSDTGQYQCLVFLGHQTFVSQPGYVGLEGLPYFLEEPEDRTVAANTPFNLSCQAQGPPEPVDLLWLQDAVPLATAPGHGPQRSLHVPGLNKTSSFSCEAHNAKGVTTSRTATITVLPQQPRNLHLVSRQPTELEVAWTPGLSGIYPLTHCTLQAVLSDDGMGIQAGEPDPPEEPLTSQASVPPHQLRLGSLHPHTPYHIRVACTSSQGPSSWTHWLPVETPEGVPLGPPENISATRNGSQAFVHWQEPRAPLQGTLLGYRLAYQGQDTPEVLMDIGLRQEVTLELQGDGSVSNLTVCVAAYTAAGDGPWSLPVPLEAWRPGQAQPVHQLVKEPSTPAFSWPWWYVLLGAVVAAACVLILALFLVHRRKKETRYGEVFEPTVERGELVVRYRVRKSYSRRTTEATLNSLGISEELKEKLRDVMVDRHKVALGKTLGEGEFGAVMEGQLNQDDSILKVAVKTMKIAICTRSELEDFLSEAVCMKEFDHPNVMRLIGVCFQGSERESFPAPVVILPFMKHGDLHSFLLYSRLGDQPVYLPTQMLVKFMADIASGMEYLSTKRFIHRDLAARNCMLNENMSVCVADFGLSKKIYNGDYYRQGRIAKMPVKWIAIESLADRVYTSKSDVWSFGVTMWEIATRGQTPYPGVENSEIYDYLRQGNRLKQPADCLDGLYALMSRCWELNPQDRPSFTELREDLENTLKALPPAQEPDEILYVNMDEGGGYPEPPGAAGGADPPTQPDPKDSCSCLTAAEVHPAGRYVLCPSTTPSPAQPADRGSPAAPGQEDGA
Chain of Sigma non-opioid intracellular receptor 1 (Q99720 whole entry): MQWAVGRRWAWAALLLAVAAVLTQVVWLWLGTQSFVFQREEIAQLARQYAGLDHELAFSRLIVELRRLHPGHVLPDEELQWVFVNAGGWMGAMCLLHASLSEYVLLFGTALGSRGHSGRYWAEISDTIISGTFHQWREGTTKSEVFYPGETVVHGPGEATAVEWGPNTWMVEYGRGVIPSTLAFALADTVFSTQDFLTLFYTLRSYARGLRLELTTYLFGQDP
Chain of Serine/threonine-protein kinase Chk1 (Homo sapiens) (O14757 whole entry): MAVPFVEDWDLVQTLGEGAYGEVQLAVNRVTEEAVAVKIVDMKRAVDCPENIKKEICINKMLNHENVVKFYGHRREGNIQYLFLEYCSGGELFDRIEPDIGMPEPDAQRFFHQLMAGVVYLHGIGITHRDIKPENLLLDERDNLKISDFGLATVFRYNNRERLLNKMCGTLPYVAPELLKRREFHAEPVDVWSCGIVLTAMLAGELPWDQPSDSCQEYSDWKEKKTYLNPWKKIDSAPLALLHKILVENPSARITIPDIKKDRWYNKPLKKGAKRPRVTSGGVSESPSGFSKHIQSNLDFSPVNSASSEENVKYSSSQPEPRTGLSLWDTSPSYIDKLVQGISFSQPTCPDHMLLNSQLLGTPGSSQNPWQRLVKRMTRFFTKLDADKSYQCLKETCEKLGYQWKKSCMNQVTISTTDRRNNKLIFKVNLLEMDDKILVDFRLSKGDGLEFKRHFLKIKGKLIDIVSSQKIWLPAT
Chain of Serine/threonine-protein kinase 26 (Homo sapiens) (Q9P289 2-416 limits assumed): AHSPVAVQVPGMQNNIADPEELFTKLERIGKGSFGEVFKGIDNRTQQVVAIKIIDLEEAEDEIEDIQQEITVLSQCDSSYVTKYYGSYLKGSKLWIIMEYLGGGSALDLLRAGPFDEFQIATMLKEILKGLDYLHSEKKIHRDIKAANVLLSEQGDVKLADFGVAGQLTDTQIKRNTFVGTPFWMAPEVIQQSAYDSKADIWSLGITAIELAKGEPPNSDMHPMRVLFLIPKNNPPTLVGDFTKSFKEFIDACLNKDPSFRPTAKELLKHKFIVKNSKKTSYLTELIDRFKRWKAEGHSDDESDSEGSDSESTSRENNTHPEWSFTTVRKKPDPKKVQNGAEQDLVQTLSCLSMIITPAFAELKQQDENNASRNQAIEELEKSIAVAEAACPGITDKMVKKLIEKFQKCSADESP
Chain of Serine/threonine-protein kinase Nek4 (Homo sapiens) (P51957 whole entry, looked up): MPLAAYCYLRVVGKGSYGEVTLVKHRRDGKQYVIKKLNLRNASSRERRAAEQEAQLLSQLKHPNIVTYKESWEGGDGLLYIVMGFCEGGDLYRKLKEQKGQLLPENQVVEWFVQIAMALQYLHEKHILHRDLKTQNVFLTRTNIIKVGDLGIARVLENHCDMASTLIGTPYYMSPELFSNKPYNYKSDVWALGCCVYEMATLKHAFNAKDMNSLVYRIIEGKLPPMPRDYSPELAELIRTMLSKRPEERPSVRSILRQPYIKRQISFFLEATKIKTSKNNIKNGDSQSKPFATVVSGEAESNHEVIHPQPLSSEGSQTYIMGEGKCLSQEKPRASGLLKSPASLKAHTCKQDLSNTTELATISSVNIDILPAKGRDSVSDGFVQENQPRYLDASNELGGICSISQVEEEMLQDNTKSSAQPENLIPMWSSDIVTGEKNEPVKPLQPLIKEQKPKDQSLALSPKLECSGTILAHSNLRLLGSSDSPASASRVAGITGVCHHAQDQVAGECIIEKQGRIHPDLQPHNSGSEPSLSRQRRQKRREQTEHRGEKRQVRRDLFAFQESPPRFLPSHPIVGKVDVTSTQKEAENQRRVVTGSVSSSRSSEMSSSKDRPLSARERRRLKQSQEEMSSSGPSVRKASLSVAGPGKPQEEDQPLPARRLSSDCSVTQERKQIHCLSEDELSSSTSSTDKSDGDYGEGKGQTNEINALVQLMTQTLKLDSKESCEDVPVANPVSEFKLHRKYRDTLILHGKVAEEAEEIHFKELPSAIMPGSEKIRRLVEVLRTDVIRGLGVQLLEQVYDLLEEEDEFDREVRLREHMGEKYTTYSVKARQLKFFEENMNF
Chain of Beta-adrenergic receptor kinase 1 (Homo sapiens) (P25098 whole entry): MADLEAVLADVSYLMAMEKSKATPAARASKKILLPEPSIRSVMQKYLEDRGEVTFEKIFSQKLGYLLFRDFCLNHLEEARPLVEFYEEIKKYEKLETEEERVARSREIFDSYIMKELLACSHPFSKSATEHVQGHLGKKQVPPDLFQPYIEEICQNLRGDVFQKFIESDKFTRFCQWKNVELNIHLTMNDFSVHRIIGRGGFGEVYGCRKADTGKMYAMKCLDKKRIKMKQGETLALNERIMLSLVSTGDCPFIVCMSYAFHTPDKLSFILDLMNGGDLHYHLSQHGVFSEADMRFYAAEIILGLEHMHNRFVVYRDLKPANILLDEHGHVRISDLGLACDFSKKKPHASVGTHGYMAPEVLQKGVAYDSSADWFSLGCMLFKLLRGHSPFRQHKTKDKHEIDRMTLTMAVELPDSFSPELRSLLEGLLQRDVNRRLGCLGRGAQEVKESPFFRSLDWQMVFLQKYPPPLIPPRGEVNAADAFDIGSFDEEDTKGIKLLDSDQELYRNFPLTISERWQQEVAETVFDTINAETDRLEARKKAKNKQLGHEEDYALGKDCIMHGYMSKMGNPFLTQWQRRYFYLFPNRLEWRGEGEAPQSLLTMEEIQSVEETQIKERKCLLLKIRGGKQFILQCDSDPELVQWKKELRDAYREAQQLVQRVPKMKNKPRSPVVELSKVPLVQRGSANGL
Chain of Alpha-1B adrenergic receptor (Homo sapiens) (P35368 whole entry): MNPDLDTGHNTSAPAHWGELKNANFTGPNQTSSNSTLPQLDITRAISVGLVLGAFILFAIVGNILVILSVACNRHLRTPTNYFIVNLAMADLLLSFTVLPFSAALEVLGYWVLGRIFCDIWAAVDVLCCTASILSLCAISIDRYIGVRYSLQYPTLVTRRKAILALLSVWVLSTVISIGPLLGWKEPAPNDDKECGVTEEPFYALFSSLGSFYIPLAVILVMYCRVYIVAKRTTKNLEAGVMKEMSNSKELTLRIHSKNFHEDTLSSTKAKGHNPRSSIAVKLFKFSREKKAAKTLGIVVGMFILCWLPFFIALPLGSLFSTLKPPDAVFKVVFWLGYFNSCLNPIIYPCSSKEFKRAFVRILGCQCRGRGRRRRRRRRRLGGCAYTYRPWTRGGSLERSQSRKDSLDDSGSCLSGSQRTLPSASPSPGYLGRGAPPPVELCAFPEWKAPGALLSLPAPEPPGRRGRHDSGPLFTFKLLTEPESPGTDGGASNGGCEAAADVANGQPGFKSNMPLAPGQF
Chain of Testis-specific serine/threonine-protein kinase 1 (Homo sapiens) (Q9BXA7 whole entry): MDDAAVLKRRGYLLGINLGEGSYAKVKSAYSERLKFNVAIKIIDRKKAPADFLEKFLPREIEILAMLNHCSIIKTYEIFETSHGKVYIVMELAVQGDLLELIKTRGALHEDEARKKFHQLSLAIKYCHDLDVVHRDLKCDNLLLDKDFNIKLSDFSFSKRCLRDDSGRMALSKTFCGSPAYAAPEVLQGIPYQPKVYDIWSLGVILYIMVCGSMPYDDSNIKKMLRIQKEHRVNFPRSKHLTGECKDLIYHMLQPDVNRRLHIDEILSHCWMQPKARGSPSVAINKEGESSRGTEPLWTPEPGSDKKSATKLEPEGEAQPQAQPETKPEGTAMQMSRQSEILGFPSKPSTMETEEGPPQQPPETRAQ

| SMILES | residual activity [1] | residual activity [2] | residual activity [3] | residual activity [4] | residual activity [5] | residual activity [6] | residual activity [7] | residual activity [8] | residual activity [9] | residual activity [10] | residual activity [11] | residual activity [12] | inhibition [13] | residual activity [14] | residual activity [15] | residual activity [16] | residual activity [17] | residual activity [18] | residual activity [19] | residual activity [20] | other results |
| --- | --- | --- | --- | --- | --- | --- | --- | --- | --- | --- | --- | --- | --- | --- | --- | --- | --- | --- | --- | --- | --- |
| Cc1c(C(=O)O)cc(-c2ccc(C3CCNCC3)cc2)c2ccc(-c3ccc(C(F)(F)F)cc3)cc12 [PPTN-NC] | 100% | 100% | 100% | 100% | 100% | 100% | 100% | 100% | 90% | 100% | 100% | 100% | 91.8% | 100% | 100% | 87% | 100% | 77% | 98% | 100% | residual activity [21]: 100%; residual activity [22]: 100%; residual activity [23]: 100%; residual activity [24]: 100%; residual activity [25]: 100%; inhibition [26]: 13.3%; residual activity [27]: 91%; residual activity [28]: 100%; residual activity [29]: 100%; residual activity [30]: 100%; residual activity [31]: 100%; residual activity [32]: 100%; residual activity [33]: 100%; residual activity [34]: 100%; inhibition [35]: 57.4%; residual activity [36]: 90%; residual activity [37]: 100% |
| O=C(O)c1cc(-c2ccc(C3CCNCC3)cc2)c2ccc(-c3ccc(C(F)(F)F)cc3)cc2c1 [PPTN] | 100% | 100% | 100% | 100% | 100% | 100% | 100% | 100% | 96% | 100% | 100% | 100% | 84.9% | 100% | 100% | 96% | 100% | 98% | 87% | 100% | residual activity [21]: 100%; residual activity [22]: 100%; residual activity [23]: 100%; residual activity [24]: 100%; residual activity [25]: 99%; inhibition [26]: 33.5%; residual activity [27]: 85%; residual activity [28]: 100%; residual activity [29]: 100%; residual activity [30]: 100%; residual activity [31]: 100%; residual activity [32]: 100%; residual activity [33]: 100%; residual activity [34]: 100%; inhibition [35]: 85.8%; residual activity [36]: 95%; residual activity [37]: 96% |
